From publication PMC3624796 (Journal of Medicinal Chemistry, 2013)

Target: T1, T4 lysozyme L99A/M102H† (Enterobacteria phage T4, UniProt P00720, C54T/C97A/E108V/L99A/M102H/N144D/S117V/S38D/T142C/T21C)
Assay type: binding
Conditions: not given

SMILES	ΔGmelt (change of stability on ligand binding, ΔTm × ΔS)
N#Cc1cc(Br)ccc1O [5-bromo-2-hydroxybenzonitrile]	0.6 kcal/mol
O=[N+]([O-])c1ccc(O)cc1 [4-nitrophenol]	1.4 kcal/mol
C=CSc1ccccc1 [phenyl vinyl sulfide]	0.25 kcal/mol

Target: T1, T4 lysozyme L99A/M102H†
Assay type: binding
Conditions: crystal structure

SMILES	hydrogen bond distance between ligand and His102
FC(F)(F)c1c[nH]cn1 [4-trifluoromethyl imidazole]	2.85 Å
C#CC(O)c1ccccc1 (stereo not drawn) [1-phenyl-2-propyn-1-ol, 1-phenyl-2-propyn-1-ol]	2.77 Å
Brc1c[nH]cn1 [4-bromoimidazole]	2.93 Å
Nc1ncc(Cl)s1 [2-amino-5-chloro thiazole]	2.89 Å
Cc1cc(C(F)(F)F)n[nH]1 [3-methyl-5-(trifluoromethyl) pyrazole]	2.90 Å
C=CCc1ccccc1O [2-allyl phenol]	3.00 Å
O=Cc1cc(O)ccc1Br [2-bromo-5-hydroxybenzaldehyde]	2.50 Å

Target: T1, T4 lysozyme L99A/M102H†
Assay type: binding
Conditions: not given
Remark: another data set of the same source

SMILES	interaction with His102 stronger than with Gln102 (double perturbation analysis)
O=[N+]([O-])c1ccc(O)cc1 [4-nitrophenol]	2.4 kcal/mol

Test system: T4 lysozyme L99A
Conditions: cited from earlier work

SMILES	binding to L99A cavity
Oc1ccccc1 [phenol]	does not measurably bind
